≈ marks a conversion by molar mass, not a printed value.
Columns and labels:
[1] = tested on: strains of Candida causing VVC; assay: Yeast susceptibility testing, all Candida species tested (overall comparisons); assay type: cell-based; settings: versus all of the gel concentrations
Experimental: (§1) AST was used to determine a Minimum Inhibitory Concentration (MIC) value for each antifungal agent on each strain of Candida. Three comparator drugs were also tested. This allowed the effectiveness of RO-101 gel to be compared to common antifungal drugs often used to treat VVC. Antifungal agents and their concentrations were as follows: RO-101 gel (1×, 2×, 10×, 20×: 1×=0.005%, 2×=0.01%, 10×=0.05% and 20×=0.1% Gox) (1 to 500 mg/L), SurgihoneyRO (1 to 500 mg/L), RO-101 gel 0% negative control (0% Gox) (1 to 500 mg/L), Fluconazole (0.125 to 64 mg/L), Itraconazole (0.015 to 8 mg/L) and Amphotericin (0.015 to 8 mg/L). The EUCAST E.DEF 7.3.2 (EUCAST, 2022a) method for yeast susceptibility testing was followed where possible.
(§2) Stock solutions of drugs were prepared with RPMI 1640 medium with 2% glucose. This was prepared by dissolving 20.8 g of RPMI 1640 powder (Sigma, Cat. No. R-6504), 69.1 g of morpholinopropanesulfonic acid (MOPS) (Melford, Cat. No. B2003) and 36 g of glucose (Sigma, Cat. No. G7528) in 800 ml of pharmacy water (Appleton Woods). 10M sodium hydroxide (Sigma, S8045) was added to adjust the pH to 7, and then the RPMI was filter sterilised. De Man, Rogosa & Sharpe (MRS) broth was used to grow the Lactobacillus isolates. MRS broth was prepared by dissolving 51 g of MRS powder (Sigma, 69966) in 1 litre of pharmacy water. 1 ml of Tween 80 (Sigma, P8074) was then added. […]

C. albicans = assay: Yeast susceptibility testing (EUCAST E.DEF 7.3.2 broth microdilution), C. albicans; assay type: cell-based; settings: Candida albicans; C. albicans isolates (n=5); 24 hours read; MIC = growth inhibited by ≥50% (Amphotericin ≥90%)
Experimental: as §1, §2

C. glabrata = assay: Yeast susceptibility testing (EUCAST E.DEF 7.3.2 broth microdilution), C. glabrata; assay type: cell-based; settings: Nakaseomyces glabratus, C. glabrata isolates (n=8), 24 hours read, MIC = growth inhibited by ≥50% (Amphotericin ≥90%)
Experimental: as §1
(§3) Stock solutions of drugs were prepared with RPMI 1640 medium with 2% glucose. This was prepared by dissolving 20.8 g of RPMI 1640 powder (Sigma, Cat. No. R-6504), 69.1 g of morpholinopropanesulfonic acid (MOPS) (Melford, Cat. No. B2003) and 36 g of glucose (Sigma, Cat. No. G7528) in 800 ml of pharmacy water (Appleton Woods). 10M sodium hydroxide (Sigma, S8045) was added to adjust the pH to 7, and then the RPMI was filter sterilised. De Man, Rogosa & Sharpe (MRS) broth was used to grow the Lactobacillus isolates. MRS broth was prepared by dissolving 51 g of MRS powder (Sigma, 69966) in 1 litre of pharmacy water. 1 ml of Tween 80 (Sigma, P8074) was then added. The mixture was then sterilized by autoclaving at 121° C. for 15 minutes.
(§4) All yeast isolates selected were grown from high vaginal swab samples and were of the Candida genus. Species chosen included C. albicans (n=5), C. glabrata (n=8), C. krusei (n=4), C. tropicalis (n=3) and C. parapsilosis (n=4). These isolates were identified to a species level by testing for the presence of a germ tube, biochemical testing, what temperature the isolate grew in, the colour when streaked on chrome agar, and in some cases the isolates DNA was sequenced.
(§5) The isolates were streaked for single colonies on a SAB plate, using a sterile metal loop. They were then incubated at 35° C. for 48 hours prior to susceptibility testing. […]

[2] = at 20° C. and 1 atm; cited from earlier work
C. tropicalis = assay: Yeast susceptibility testing (EUCAST E.DEF 7.3.2 broth microdilution), C. tropicalis; assay type: cell-based; settings: Candida tropicalis, C. tropicalis isolates (n=3), 24 hours read, MIC = growth inhibited by ≥50%
Experimental: as §1, §2

C. parapsilosis = assay: Yeast susceptibility testing (EUCAST E.DEF 7.3.2 broth microdilution), C. parapsilosis; assay type: cell-based; settings: Lodderomyces parapsilosis, C. parapsilosis isolates (n=4), 24 hours read, MIC = growth inhibited by ≥50%
Experimental: as §1, §3, §4, §5

C. krusei = assay: Yeast susceptibility testing (EUCAST E.DEF 7.3.2 broth microdilution), C. krusei; assay type: cell-based; settings: Pichia kudriavzevii, C. krusei isolates (n=4), 24 hours read, MIC = growth inhibited by ≥50%
Experimental: as §1, §3, §4, §5

## C[C@@H]1[C@H](O)[C@@H](C)/C=C/C=C/C=C/C=C/C=C/C=C/C=C/[C@H](O[C@@H]2O[C@H](C)[C@@H](O)[C@H](N)[C@@H]2O)C[C@@H]2O[C@](O)(C[C@@H](O)C[C@@H](O)[C@H](O)CC[C@@H](O)C[C@@H](O)CC(=O)O[C@H]1C)C[C@H](O)[C@H]2C(=O)O [Amphotericin]
[1]
  MIC50, MIC90 and geometric means in comparison with RO-101 Gel: lower MIC50, MIC90 and geometric means than all of the gel concentrations
C. albicans
  MIC50: 0.0625 µg/mL (≈ 0.0676 µM)
  MIC90: 0.0625 µg/mL (≈ 0.0676 µM)
C. glabrata
  MIC50: 0.0625 µg/mL (≈ 0.0676 µM)
  MIC90: 0.125 µg/mL (≈ 0.135 µM)
C. glabrata; read-out: MIC geometric mean
  MIC: 0.081 µg/mL (≈ 0.0877 µM)

## O=C(CO)[C@@H](O)[C@H](O)[C@H](O)CO [Fructose]
[2]
  solubility: about 375 g/100 g water

## CCC(C)n1ncn(-c2ccc(N3CCN(c4ccc(OCC5COC(Cn6cncn6)(c6ccc(Cl)cc6Cl)O5)cc4)CC3)cc2)c1=O (stereo not drawn) [Itraconazole]
C. tropicalis
  MIC90: 0.0625 µg/mL (≈ 0.0886 µM)
C. tropicalis; read-out: MIC geometric mean
  MIC: 0.031 µg/mL (≈ 0.0439 µM)
C. parapsilosis
  MIC50: 0.015 µg/mL (≈ 0.0213 µM)
  MIC90: 0.125 µg/mL (≈ 0.177 µM)
C. parapsilosis; read-out: MIC geometric mean
  MIC: 0.025 µg/mL (≈ 0.0354 µM)
C. krusei
  MIC50: 0.125 µg/mL (≈ 0.177 µM)
  MIC90: 0.25 µg/mL (≈ 0.354 µM)
C. krusei; read-out: MIC geometric mean
  MIC: 0.177 µg/mL (≈ 0.251 µM)

Source: patent US20260027258A1, “Antimicrobial Compositions” (Matoke Holdings Limited, priority 2022, published 2026)
